Marks after values point to notes of the source that are not given here. Residues, ends and D or L forms follow the SMILES beside them.
Tested on: HLA-B8
Experiment: HLA assembly assay, binding to HLA-B8 (T2 cell line transfected with HLA-B8)
Set-up: species or system human
Conditions: not given
Text: (§1) We have recently described a novel approach to identifying CTL epitopes and potential CTL epitopes in P. falciparum^1. This consisted, in brief, of 1) determining a motif for peptides bound to a particular KLA class I molecules, 2) synthesizing peptides from P. falciparum antigens congruent with this motif, 3) testing whether these peptides bind to that HLA class I allele using a binding assay known as a HLA assembly assay, and 4) testing whether lymphocytes from individuals exposed to malaria could recognise these peptides as epitopes after suitable in vitro restimulation and culture. In that work we identified peptide epitopes and potential peptide epitopes for two HLA class I molecules, HLA-B53 and HLA-B35. Here we extend that work to four further HLA class I molecules: HLA-A2, HLA-B8, HLA-B7 and HLA-B17. 52 peptides are identified that are shown either to be epitopes or potential epitopes for these HLA class I molecules.
(§2) As described previously for identification of HLA-B35 and HLA-B53 epitopes^1, peptides were synthesised to correspond to these four motifs from the primary amino acid sequences of four P. falciparum pre-erythrocytic antigens: CSP, TRAP, LSA-1 and SHEBA. Over one hundred peptides were synthesized. […]

Compound	binding to HLA-B8 in the HLA assembly assay
LRKPKHKKL [cp43, circumsporozoite protein peptide, position 134, HLA-B8]	bound

Tested on: HLA-B17
Experiment: HLA assembly assay, binding to HLA-B17 (T2 cell line transfected with HLA-B58)
Set-up: species or system human
Conditions: not given
Text: as §1
The peptide binding motifs of HLA-A2, HLA-B7 and HLA-B8 have been described. For HLA-A2 strong preferences were found at positions 2 and 9 of bound peptides: for leucine, isoleucine and methionine at position 2, and for valine, leucine and isoleucine at position 9^3, 4 For HLA-B7 the preferred residues were proline at position 2 and a hydrophobic residue at position 9. Leucine, isoleucine, valine, alanine, phenylalanine and tryptophan were the hydrophobic residues preferred^5. For HLA-B8 preferred residues were found at positions 3, 5 and 9^6. At positions 3 and 5 lysine or arginine are preferred and at position 9, leucine or isoleucine or valine. The motif for peptides bound to HLA-B17 has not been reported so we determined this exactly as described for HLA-B35^1, using instead of the cell line CIR-B35, the cell line CIR-B58.
as §2

Compound	binding to HLA-B17 in the HLA assembly assay
CSSVFNVV [cp56, circumsporozoite protein peptide, position 388, HLA-B17]	bind
GSANKPKDEL [cp55, circumsporozoite protein peptide, position 364, HLA-B17]	bind
LSVSSFLFV [cp48, circumsporozoite protein peptide, position 8, HLA-B17]	bind

Target: T1, HLA-B7 (Homo sapiens, UniProt P01889)
T1 construct: expressed in transfected cells; host or cells: T2 cell line
T1 sequence (P61769 21-119): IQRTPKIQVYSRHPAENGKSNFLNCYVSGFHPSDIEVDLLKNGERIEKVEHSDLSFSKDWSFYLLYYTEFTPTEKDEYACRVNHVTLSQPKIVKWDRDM
T1 sequence (P01889 25-362): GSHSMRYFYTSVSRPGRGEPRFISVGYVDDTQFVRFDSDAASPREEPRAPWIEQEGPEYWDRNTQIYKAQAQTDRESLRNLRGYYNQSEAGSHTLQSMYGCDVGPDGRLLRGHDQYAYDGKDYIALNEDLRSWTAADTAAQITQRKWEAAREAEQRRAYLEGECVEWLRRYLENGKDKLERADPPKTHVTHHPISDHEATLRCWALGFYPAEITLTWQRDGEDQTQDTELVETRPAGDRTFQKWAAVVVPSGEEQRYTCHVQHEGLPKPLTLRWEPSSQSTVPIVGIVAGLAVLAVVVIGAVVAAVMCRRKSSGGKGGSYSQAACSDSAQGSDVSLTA
Experiment: not given
Format: binding
Conditions: not given
Text: as §1
(§3) As described previously for identification of HLA-B35 and HLA-B53 epitopes^1, peptides were synthesised to correspond to these four motifs from the primary amino acid sequences of four P. falciparum pre-erythrocytic antigens: CSP, TRAP, LSA-1 and SHEBA. Over one hundred peptides were synthesized. Binding assays^7 were performed on selected peptides to determine whether they bound to HLA-A2, -B7, -B8, or -B58 using the untransfected T2 cell line (for HLA-A2) or the T2 cell line transfected with HLA-B7 (used to assess binding to HLA-B7s), or with HLA-B8 (used to assess binding to HLA-B8), or with HLA-B58 (used to assess binding to HLA-B58).

Compound	binding to HLA-B7 in the HLA assembly assay
MPLETQLAI [sh6]	bind

Same assay, conditions: T2 cell line transfected with HLA-B7

Compound	binding to HLA-B7 in the HLA assembly assay
EPAPFDETL [tr15]	bind
IPDSIQDSL [tr13]	bind
GPFMKAVCV [tr21]	bind
NPENPPNPDI [tr6, TRAP peptide, position 348, HLA-B7]	bind
NPDPNANPNV [cp21]	bind
KPIVQYDNF [ls6, LSA-1 peptide, position 1786, HLA-B7]	bind
IPSLALMLI [sh1, SHEBA peptide, position 7, HLA-B7]	bind

Tested on: HLA matched or autologous B cell line targets pre-pulsed with the peptide
Experiment: CTL chromium release assay with restimulated lymphocytes from malaria-exposed Gambians
Format: cell-based, human
Conditions: Gambian adults with HLA-B8 (Z42, Z130, Z80, Z169); 10% or greater specific lysis regarded as significant
Experimental: Peptides shown to bind to a particular HLA class I allele were tested for CTL recognition in assays using lymphocytes from malaria-exposed Gambians, as described previously^1. A minority of peptides, synthesized to correspond to a peptides binding motif were not tested in the relevant assembly assay but tested only for CTL recognition. Cells from 82 adult Gambians and 53 Gambian children, all exposed to malaria, were used in the course of these studies. The children and adults were HLA typed using cellular or molecular techniques as described previously^1. Peptides were incubated with cells either singly, or in pools as described^1 at concentrations of 10-100 μM. Peptides could either be left with the cells for the duration of restimulation (as reported^1) or washed off after an hour. Cells were cultured for 1-3 weeks before a standard CTL chromium release assay^1 was performed using HLA matched or autologous B cell line targets pre-pulsed with the peptide to be tested. Peptides were tested either singly or in pools for CTL recognition.

Compound	CTL recognition / lysis of peptide-pulsed target cells
LRKPKHKKL [cp43, circumsporozoite protein peptide, position 134, HLA-B8]	HLA-B8-restricted CTL epitope

Same assay, conditions: asterisk beside the label in the table; HLA class I molecule

Compound	identified as an epitope for a secondary cytotoxic T lymphocyte response
CC[C@H](C)[C@H](NC(=O)[C@@H](NC(=O)[C@H](CC(C)C)NC(=O)[C@H](C)NC(=O)[C@H](CCCCN)NC(=O)[C@H](CCC(=O)O)NC(=O)[C@H](CCCCN)NC(=O)[C@H](CC(N)=O)NC(=O)[C@@H](N)CCCCN)[C@@H](C)CC)C(=O)O [tr43, KNKEKALII] (H-KNKEKALII-OH; N-terminus and C-terminus assumed)	tr43 *
CC[C@H](C)[C@H](NC(=O)CN)C(=O)N[C@@H](C)C(=O)NCC(=O)NCC(=O)N[C@@H](CC(C)C)C(=O)N[C@@H](C)C(=O)N[C@@H](CC(C)C)C(=O)N[C@@H](CC(C)C)C(=O)O [tr39, GIAGGLALL] (H-GIAGGLALL-OH; N-terminus and C-terminus assumed)	tr39 *
CC[C@H](C)[C@H](NC(=O)[C@H](CCCCN)NC(=O)[C@H](CCC(N)=O)NC(=O)[C@H](CC(C)C)NC(=O)[C@@H](N)Cc1ccc(O)cc1)C(=O)N[C@@H](CCC(N)=O)C(=O)N[C@@H](CC(N)=O)C(=O)N[C@@H](CO)C(=O)N[C@@H](CC(C)C)C(=O)O [cp37, YLQKIQNSL] (H-YLQKIQNSL-OH; N-terminus and C-terminus assumed)	cp37 *
CC[C@H](C)[C@H](NC(=O)[C@H](CCCCN)NC(=O)[C@H](CCC(N)=O)NC(=O)[C@H](CC(C)C)NC(=O)[C@@H](N)Cc1ccc(O)cc1)C(=O)N[C@@H](CCCCN)C(=O)N[C@@H](CC(N)=O)C(=O)N[C@@H](CO)C(=O)N[C@@H](CC(C)C)C(=O)O [cp38, YLQKIKNSL] (H-YLQKIKNSL-OH; N-terminus and C-terminus assumed)	cp38 *
CC(C)C[C@H](NC(=O)[C@H](C)NC(=O)[C@H](CCCCN)NC(=O)[C@H](CCC(=O)O)NC(=O)[C@H](CCCCN)NC(=O)[C@H](CC(N)=O)NC(=O)[C@H](CCCCN)NC(=O)[C@H](CO)NC(=O)[C@H](C)N)C(=O)O [tr42, ASKNKEKAL] (H-ASKNKEKAL-OH; N-terminus and C-terminus assumed)	tr42 *
CSCC[C@H](N)C(=O)N1CCC[C@H]1C(=O)N[C@@H](CC(N)=O)C(=O)N[C@@H](CC(N)=O)C(=O)N1CCC[C@H]1C(=O)N[C@@H](CC(N)=O)C(=O)N[C@@H](CCCNC(=N)N)C(=O)N[C@@H](CC(N)=O)C(=O)N[C@H](C(=O)O)C(C)C [cp6.2, MPNNPNRNV] (H-MPNNPNRNV-OH; N-terminus and C-terminus assumed)	cp6.2 *
CSCC[C@H](N)C(=O)N1CCC[C@H]1C(=O)N[C@@H](CC(N)=O)C(=O)N[C@@H](Cc1ccc(O)cc1)C(=O)N1CCC[C@H]1C(=O)N[C@@H](CC(N)=O)C(=O)N[C@@H](CCCNC(=N)N)C(=O)N[C@@H](CC(N)=O)C(=O)N[C@H](C(=O)O)C(C)C [cp6.1, MPNYPNRNV] (H-MPNYPNRNV-OH; N-terminus and C-terminus assumed)	cp6.1 *
CC(C)C[C@H](NC(=O)[C@H](Cc1ccc(O)cc1)NC(=O)[C@H](CCCCN)NC(=O)[C@@H](NC(=O)[C@H](CC(N)=O)NC(=O)CNC(=O)[C@H](CC(C)C)NC(=O)[C@@H](N)Cc1c[nH]cn1)C(C)C)C(=O)N[C@H](C(=O)O)C(C)C [tr26, HLGNVKYLV] (H-HLGNVKYLV-OH; N-terminus and C-terminus assumed)	tr26 *
CC[C@H](C)[C@H](NC(=O)[C@@H](NC(=O)[C@H](CCCCN)NC(=O)[C@H](CC(C)C)NC(=O)[C@@H](N)Cc1ccc(O)cc1)[C@@H](C)O)C(=O)N[C@@H](CCC(N)=O)C(=O)N[C@@H](CC(N)=O)C(=O)N[C@@H](CO)C(=O)N[C@@H](CC(C)C)C(=O)O [cp36, YLKTIQNSL] (H-YLKTIQNSL-OH; N-terminus and C-terminus assumed)	cp36 *

Target: T2, HLA-A2 (Homo sapiens, UniProt P04439, D140Y/D185E/D98H/E176V/E277Q/G131W/G231S/I119V/I121R/I166T/I218V/L300P/L318F/N151K/N90K/P208A/P217A/Q86G/Q94H/R138H/R169H/T345S)
T2 construct: using the untransfected T2 cell line (for HLA-A2); endogenous in cells; host or cells: untransfected T2 cell line
Experiment: HLA assembly assay, binding to HLA-A2 (untransfected T2 cell line)
Conditions: not given
Text: as §1, §3

Compound	binding to HLA-A2 in the HLA assembly assay
YISFYFILV [ls11]	bind
ILYISFYFI [ls10]	bind
LLMDCSGSI [tr29, TRAP peptide, position 51, HLA-A2]	bound
GIYKELEDL [ls19, LSA-1 peptide, position 1801, HLA-A2]	bind
HIFDGDNEI [ls23, LSA-1 peptide, position 1883, HLA-A2]	bind
